# Measured values taken from US7361186B2, “Active body cooling with vasodilation to reduce body temperature” (priority 2003, dated 2008).
# “And” between values parts separate entries of the source, which are not always exact repeats. Equal values may be shown once. Read-outs that look alike come from different tables or passages of the source.
# Tests used:
# healthy subjects [1] = experiment: Phase 1: cooling of healthy subjects with contact-cooling pads under meperidine; format: in vivo, human
# Protocol: Four contact pads are applied to the thighs and chest of each subject and each subject is rapidly cooled with an objective of reducing core body temperature to 34-35° C. Core body temperatures are measured at the tympanic membrane and the rectum. Mean skin-surface temperature is determined from the weighted average of calf, thigh, chest, and upper arm skin temperatures. Thermoregulatory vasoconstriction is evaluated using forearm minus fingertip skin-temperature gradients. Temperatures are measured using Mon-a-Therm™ themocouple probes connected to Mallinckrodt Model 6510 two-channel electronic thermometers having an accuracy near 0.1° C. (Mallinckrodt Anesthesia Products, St. Louis, Mo., U.S.A.). Temperatures are recorded before cooling is started (i.e., baseline) and subsequently at 15-minute intervals.
# Each of subjects 1-5 is administered a single dose of acetomiophen (1000 mg) within 20 minutes prior to treatment and is administered a bolus of intravenous (IV) meperidine (Demerol®, 25-75 mg) within 5 minutes of the start of cooling. Subjects also receive initial doses of chlorpromazine (Thorazine®, 12.5-25 mg, IV). Active cooling is initiated and the inlet water temperature is controlled to achieve a target tympanic temperature between 34° C. and 35° C. Additional doses of meperidine and/or chloropromazine are administered to maintain comfort and to prevent shivering. Active cooling and maintenance of hypothermia continues for up to five hours, after which subjects are actively re-warmed to tympanic and rectal temperatures of at least 36° C.
# The presence of shivering is noted by physical examination, electromyographic artifact on continuous electrocardiography (ECG), or by subject report. Overall thermal comfort is evaluated at 15-min intervals with a 100-mm-long visual analog scale (VAS) on which 0 mm defines the worst imaginable cold, 50 mm identifies thermal neutrality, and 100 mm indicates unbearable heat. A new, unmarked scale is used for each assessment. Heart rate and oxyhemoglobin saturation are monitored using ECG and pulse oximetry; arterial blood pressure is recorded oscillometrically at 15-minute intervals.
# healthy subjects [2] = experiment: Phase 3a: cooling with five contact-cooling pads under meperidine; format: in vivo, human
# Source text: (§1) Mild hypothermia is induced and maintained in healthy subjects for up to several hours. […] Each volunteer is cooled using contact-cooling pads (Arctic Sun Energy Transfer Pads™, Medivance, Inc., Louisville, Colo., U.S.A.). Contact-cooling pads are applied to contact the subjects, and water at a controlled temperature is delivered to and circulated through the contact pads to effect the controlled cooling of each volunteer.
# healthy subjects [3] = experiment: Phase 5: cooling under meperidine plus IV ondansetron; format: in vivo, human
# healthy subjects [4] = experiment: Subsequent test similar to Phase 5 with supplemental ondansetron dose; format: in vivo, human; conditions: one subject; ondansetron 8 mg initial dose and 8 mg supplemental dose 3.5 hours later
# Protocol: Moreover, during a subsequent test conducted in a manner similar to that described for Phase 5, a subject is administered an initial dose of 8 mg of the ondansetron followed by a supplemental dose of 8 mg of the ondansetron administered 3.5 hours later.
# healthy subjects [5] = conditions: Phase 4
# Source text: as §1
# healthy subjects [6] = conditions: Phase 6
# Source text: Mild hypothermia is induced and maintained in healthy subjects for up to several hours. Table 1 summarizes data concerning the subjects for each phase of testing (Phases 1, 3a, 4, 5 and 6). Each volunteer is cooled using contact-cooling pads (Arctic Sun Energy Transfer Pads™, Medivance, Inc., Louisville, Colo., U.S.A.). Contact-cooling pads are applied to contact the subjects, and water at a controlled temperature is delivered to and circulated through the contact pads to effect the controlled cooling of each volunteer.
# Five contact-cooling pads are applied to the thighs, back and abdomen of each subjects, and actively cooled. The pads cover and contact about 0.6 square meter of the subject's exterior body surface area, which is the area in heat transfer communication between the pads and the subject's body. Temperatures are measured in the same manner as in Phase 1 except that the rectal temperature probe is connected to a control module and the rectal temperature signal is used by the control module to adjust inlet water temperature via a feedback control algorithm to achieve a target core body temperature of 34.5° C.
# A single oral dose of acetaminophen (1000 mg), is administered within 20 minutes prior to treatment. A bolus of IV meperidine (Demerol®, 50-100 mg) is given within 5 minutes of the start of active cooling. Additional doses of meperidine are administered to maintain comfort and to prevent shivering. Active cooling and maintenance of hypothermia continues for five hours. As in the Phase 1, the subjects are actively re-warmed to a tympanic and rectal temperatures of at least of 36° C. prior to termination of the experiment. Shivering, comfort, oxyhemoglobin saturation, and arterial blood pressure are recorded as in Phase 1.
# Phase 5 Phase 5 proceeds as described for Phase 3a, except as noted. The temperature of water circulated to the contact-cooling pads is controlled to achieve a target core body temperature of 34.5° C. In addition to meperidine (Demerol®), subjects are also given an IV dose of 8 mg ondansetron (hydrochloride salt, Glaxo Wellcome). […]
# [7] = meperidine regimen, mean of 5 subjects
# [8] = Phase 3a, meperidine regimen, individual subjects
# [9] = Phase 3a, meperidine regimen, mean of 5 subjects
# [10] = Phase 5, meperidine plus ondansetron, mean of 6 subjects
# [11] = meperidine plus buspirone, mean of 4 subjects
# [12] = meperidine, ondansetron and magnesium sulfate, mean of 8 subjects
smiles,measurement,setting,value
CCOC(=O)C1(c2ccccc2)CCN(C)CC1 [meperidine],Time to 35° C.,"healthy subjects [1]; four contact pads, acetaminophen 1000 mg, IV meperidine 25-75 mg bolus plus additional doses, chlorpromazine, tympanic temperature, individual subjects",105 min and 78 min and 41 min and 82 min and 81 min
same,Nausea or Vomiting During Treatment,"healthy subjects [1]; meperidine regimen, individual subjects",None
same,"Cooling rate to 35° C., Mean ± SD",healthy subjects [1]; [7],1.5±0.6 ° C./hr and 1.5 ± .6 ° C./hr
same,"Time to 35° C., Mean ± SD",healthy subjects [1]; [7],77 ± 23 min
same,Cooling rate to 35° C.,"healthy subjects [1]; meperidine regimen, tympanic temperature, individual subjects",1.0 ° C./hr and 1.5 ° C./hr and 2.6 ° C./hr and 1.2 ° C./hr and 1.4 ° C./hr
same,Systolic blood pressure,"healthy subjects [2]; Phase 3a, 180 min timepoint, baseline 122±13, p=0.042",140±20 mm Hg
same,"change in heart rate, diastolic blood pressure, or blood oxygenation compared with baseline","healthy subjects [2]; Phase 3a, all subjects, during cooling",no statistically significant change
same,Time to 35° C.,"healthy subjects [2]; Phase 3a, five contact-cooling pads, oral acetaminophen 1000 mg, IV meperidine 50-100 mg bolus plus additional doses, tympanic temperature, individual subjects",64 min and 180 min and 94 min and 56 min and 46 min
same,Cooling rate to 35° C.,healthy subjects [2]; [8],1.9 ° C./hr (2×) and .9 ° C./hr and 1.2 ° C./hr and 2.1 ° C./hr
same,Nausea or Vomiting During Treatment,healthy subjects [2]; [8],"Nausea end (2×) and None and Nausea early, end and Nausea, vomiting mid"
same,"Cooling rate to 35° C., Mean ± SD",healthy subjects [2]; [9],1.6 ± 0.5 ° C./hr
same,"Time to 35° C., Mean ± SD",healthy subjects [2]; [9],88 ± 54 min
same,respiratory compromise,healthy subjects [2]; Phases 1 and 3a,no respiratory compromise
same,"nausea observed, share of subjects","healthy subjects [2]; Phases 1 and 3a pooled, all cases in Phase 3a",30 % of subjects
same,indications of vasodilation (Tdig being larger than Tfore),"healthy subjects [2]; Phases 3a, 4 and 5 (no vasodilation drug), early stages of cooling",only a few of the subjects
same,allergic reaction,"healthy subjects [3]; Phase 5, one subject withdrawn, facial rash",mild allergic reaction
Cc1nccn1CC1CCc2c(c3ccccc3n2C)C1=O (stereo not drawn) [ondansetron],"Cumulative Heat Transfer From Subject, 5 Min","healthy subjects [3]; Phase 5, 5 Min after initiation of cooling, gross values, corrected values approximately 15% smaller, individual subjects",53.91 kcal and 37.16 kcal and 48.61 kcal and 45.90 kcal and 44.85 kcal
same,"Cumulative Heat Transfer From Subject, 10 Min","healthy subjects [3]; Phase 5, 10 Min after initiation of cooling, gross values, individual subjects",96.81 kcal and 73.79 kcal and 84.78 kcal and 82.99 kcal and 79.01 kcal
same,"Cumulative Heat Transfer From Subject, 15 Min","healthy subjects [3]; Phase 5, 15 Min after initiation of cooling, gross values, individual subjects",136.59 kcal and 109.68 kcal and 124.12 kcal and 118.51 kcal and 111.35 kcal
same,"Cumulative Heat Transfer From Subject, 20 Min","healthy subjects [3]; Phase 5, 20 Min after initiation of cooling, gross values, individual subjects",175.59 kcal and 142.73 kcal and 163.01 kcal and 151.96 kcal and 142.43 kcal
same,"Cumulative Heat Transfer From Subject, 25 Min","healthy subjects [3]; Phase 5, 25 Min after initiation of cooling, gross values, individual subjects",214.2 kcal and 169.85 kcal and 200.85 kcal and 184.79 kcal and 172.00 kcal
same,"Cumulative Heat Transfer From Subject, 30 Min","healthy subjects [3]; Phase 5, 30 Min after initiation of cooling, gross values, individual subjects",252.02 kcal and 184.74 kcal and 239.02 kcal and 218.02 kcal and 201.44 kcal
same,"Cumulative Heat Transfer From Subject, 45 Min","healthy subjects [3]; Phase 5, 45 Min after initiation of cooling, gross values, individual subjects",360.32 kcal and 205.19 kcal and 354.67 kcal and 309.30 kcal and 282.20 kcal
same,"Cumulative Heat Transfer From Subject, 60 Min","healthy subjects [3]; Phase 5, 60 Min after initiation of cooling, gross values, individual subjects",466.28 kcal and 212.94 kcal and 467.30 kcal and 346.56 kcal and 353.28 kcal
same,"Cumulative Heat Transfer From Subject, 75 Min","healthy subjects [3]; Phase 5, 75 Min after initiation of cooling, gross values, individual subjects",567.71 kcal and 284.94 kcal and 574.88 kcal and 361.63 kcal and 423.43 kcal
same,"Cumulative Heat Transfer From Subject, 90 Min","healthy subjects [3]; Phase 5, 90 Min after initiation of cooling, gross values, individual subjects",667.78 kcal and 348.14 kcal and 676.99 kcal and 367.39 kcal and 436.35 kcal
same,"Cumulative Heat Transfer From Subject, 105 Min","healthy subjects [3]; Phase 5, 105 Min after initiation of cooling, gross values, individual subjects",767.83 kcal and 375.85 kcal and 708.76 kcal and 366.43 kcal and 458.46 kcal
same,"Cumulative Heat Transfer From Subject, 120 Min","healthy subjects [3]; Phase 5, 120 Min after initiation of cooling, gross values, individual subjects",867.73 kcal and 407.01 kcal and 733.20 kcal and 368.56 kcal and 457.78 kcal
same,effect on incidence of nausea and vomiting,"healthy subjects [3]; Phase 5, IV ondansetron 8 mg with meperidine, relative to Phases 3a and 4",reduces the incidence of nausea and vomiting
same,Time to 35° C.,"healthy subjects [3]; Phase 5, as Phase 3a (meperidine) plus IV ondansetron 8 mg, individual subjects",58 min and 88 min and 310 min and 189 min and 60 min and 80 min
same,Cooling rate to 35° C.,"healthy subjects [3]; Phase 5, meperidine plus IV ondansetron 8 mg, individual subjects",1.4 ° C./hr and 1.6 ° C./hr and 0.5 ° C./hr and 0.6 ° C./hr and 1.9 ° C./hr and 1.5 ° C./hr
same,"Cooling rate to 35° C., Mean ± SD",healthy subjects [3]; [10],1.3 ° C./hr and 1.3 ± 0.6 ° C./hr
same,"Time to 35° C., Mean ± SD",healthy subjects [3]; [10],131 ± 100 min
same,meperidine administration relative to Phase 3a,"healthy subjects [3]; Phase 5, p=0.26, t-test",trend toward less meperidine administration
same,mean comfort score,"healthy subjects [3]; Phase 5 versus Phases 1, 3a and 4",higher
same,nausea,healthy subjects [4],does not experience nausea
O=C1CC2(CCCC2)CC(=O)N1CCCCN1CCN(c2ncccn2)CC1 [buspirone],"Cooling rate to 35° C., Mean ± SD",healthy subjects [5]; [11],1.2 ± 0.4 ° C./hr
same,"Time to 35° C., Mean ± SD",healthy subjects [5]; [11],109 ± 40 min
same,effect on incidence of nausea,"healthy subjects [5]; oral buspirone 30-60 mg with meperidine, four subjects",did not reduce the incidence of nausea
O=S(=O)([O-])[O-].[Mg+2] [magnesium sulfate],indications of vasodilation (Tdig being larger than Tfore),healthy subjects [6]; early stages of cooling,seven of eight subjects
same,"Cooling rate to 35° C., Mean ± SD",healthy subjects [6]; [12],1.3 ± 0.4 ° C./hr
same,"Time to 35° C., Mean ± SD",healthy subjects [6]; [12],86 ± 23 min
